Structures can show the parent of a compound that is named as a salt.
Test system: not given
Details: not given
With Cc1ccccc1-n1ncc2c(=O)[nH]c(CC(C)C(F)(F)F)nc21 (racemic) (as salt: sodium) [Example 36, 1-(2-Methylphenyl)-6-(3,3,3-trifluoro-2-methylpropyl)-1,5-dihydro-4H-pyrazolo[3,4-d]pyrimidin-4-one] the melting point was 160 °C. Cc1ccncc1-n1ncc2c(=O)[nH]c(CC3CCCC3)nc21 (as salt: sodium) gave a melting point of 206 °C. For O=c1[nH]c(CC2C=CCC2)nc2c1cnn2-c1ccccn1 (stereo not shown) (as salt: sodium) [Example 17, 6-(2-Cyclopenten-1-ylmethyl)-1-(2-pyridinyl)-1,5-dihydro-4H-pyrazolo[3,4-d]pyrimidin-4-one], the melting point was 239 °C. With CCc1ccccc1-n1ncc2c(=O)[nH]c(CC3C=CCC3)nc21 (stereo not shown) (as salt: sodium) [Example 8, 6-(2-Cyclopenten-1-ylmethyl)-1-(2-ethylphenyl)-1,5-dihydro-4H-pyrazolo[3,4-d]pyrimidin-4-one] the melting point was 146 °C. In the case of Cc1ccncc1-n1ncc2c(=O)[nH]c(CC3CCCCC3)nc21 (as salt: sodium) [Example 43, 6-Cyclohexylmethyl-1-(4-methylpyridin-3-yl)-1,5-dihydro-4H-pyrazolo[3,4-d]pyrimidin-4-one], the melting point is reported as 206 °C. With COc1ccccc1-n1ncc2c(=O)[nH]c(CC3C=CCC3)nc21 (stereo not shown) (as salt: sodium) [Example 18, 6-(2-Cyclopenten-1-ylmethyl)-1-(2-methoxyphenyl)-1,5-dihydro-4H-pyrazolo[3,4-d]pyrimidin-4-one] the melting point was 182 °C. O=c1[nH]c(CC2C=CCC2)nc2c1cnn2-c1ccccc1Cl (stereo not shown) (as salt: sodium) [Example 16, 6-(2-Cyclopenten-1-ylmethyl)-1-(2-chlorophenyl)-1,5-dihydro-4H-pyrazolo[3,4-d]pyrimidin-4-one] gave a melting point of 150 °C. Molecule Cc1ccccc1-n1ncc2c(=O)[nH]c(CC3CCCC3)nc21 (as salt: sodium) has a melting point of 181 °C. Cc1ccccc1-n1ncc2c(=O)[nH]c(CC3CCCCC3)nc21 (as salt: sodium) [Example 10, 6-Cyclohexylmethyl-1-(2-methylphenyl)-1,5-dihydro-4H-pyrazolo[3,4-d]pyrimidin-4-one] showed a melting point of 169 °C. Molecule Cc1ccccc1-n1ncc2c(=O)[nH]c(CC3C=CCC3)nc21 (stereo not shown) (as salt: sodium) [Example 9, 6-(2-Cyclopenten-1-ylmethyl)-1-(2-methylphenyl)-1,5-dihydro-4H-pyrazolo[3,4-d]pyrimidin-4-one] has a melting point of 179 °C. With O=c1[nH]c(CC2C=CCC2)nc2c1cnn2-c1ccccc1C(F)(F)F (stereo not shown) (as salt: sodium) [Example 14, 6-(2-Cyclopenten-1-ylmethyl)-1-[2-(trifluoromethyl)phenyl]-1,5-dihydro-4H-pyrazolo[3,4-d]pyrimidin-4-one] the melting point was 153 °C. In the case of CCC(C)Cc1nc2c(cnn2-c2ccccc2C)c(=O)[nH]1 (racemic) (as salt: sodium) [Example 35, 6-(2-Methylbutyl)-1-(2-methylphenyl)-1,5-dihydro-4H-pyrazolo[3,4-d]pyrimidin-4-one], the melting point is reported as 132 °C. For CC(C)Cc1nc2c(cnn2-c2ccccc2Cl)c(=O)[nH]1 (as salt: sodium) [Example 40, 1-(2-Chlorophenyl)-6-(2-methylpropyl)-1,5-dihydro-4H-pyrazolo[3,4-d]pyrimidin-4-one], the melting point was 204 °C. CCC(CC)Cc1nc2c(cnn2-c2cnccc2C)c(=O)[nH]1 (as salt: sodium) [Example 41, 6-(2-Ethylbutyl)-1-(4-methylpyridin-3-yl)-1,5-dihydro-4H-pyrazolo[3,4-d]pyrimidin-4-one] gave a melting point of 143 °C. Work on CCC(C)Cc1nc2c(cnn2-c2cnccc2C)c(=O)[nH]1 (racemic) (as salt: sodium) [Example 39, 6-(2-Methylbutyl)-1-(4-methylpyridin-3-yl)-1,5-dihydro-4H-pyrazolo[3,4-d]pyrimidin-4-one] yielded a melting point of 149 °C. For O=c1[nH]c(CC2C=CCC2)nc2c1cnn2-c1ccccc1F (stereo not shown) (as salt: sodium) [Example 15, 6-(2-Cyclopenten-1-ylmethyl)-1-(2-fluorophenyl)-1,5-dihydro-4H-pyrazolo[3,4-d]pyrimidin-4-one], the melting point was 163 °C.

Target: human PDE9A (Homo sapiens (Human), UniProt O76083)
Sequence (O76083 whole entry): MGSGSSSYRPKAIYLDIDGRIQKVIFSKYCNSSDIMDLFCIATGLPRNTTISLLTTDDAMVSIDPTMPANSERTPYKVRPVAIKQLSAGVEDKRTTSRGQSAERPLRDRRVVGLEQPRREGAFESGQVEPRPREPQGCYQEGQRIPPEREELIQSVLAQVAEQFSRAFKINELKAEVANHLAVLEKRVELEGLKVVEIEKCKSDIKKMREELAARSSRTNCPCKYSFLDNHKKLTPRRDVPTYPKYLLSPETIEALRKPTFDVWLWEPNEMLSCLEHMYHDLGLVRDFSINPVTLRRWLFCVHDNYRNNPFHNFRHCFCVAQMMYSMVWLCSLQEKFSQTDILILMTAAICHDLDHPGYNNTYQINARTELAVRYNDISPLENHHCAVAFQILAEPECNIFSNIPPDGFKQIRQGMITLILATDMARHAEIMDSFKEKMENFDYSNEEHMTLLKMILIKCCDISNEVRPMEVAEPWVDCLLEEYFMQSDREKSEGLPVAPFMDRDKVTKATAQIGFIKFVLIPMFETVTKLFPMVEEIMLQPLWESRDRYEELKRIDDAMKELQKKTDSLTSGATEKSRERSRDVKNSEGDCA
Details: concentrations of up to 100 μM; cited from earlier work
In the case of CC(=O)Nc1ccc(-c2c[nH]c(=O)cn2)cc1 [SKF94120], the “inhibition on the isolated enzyme” value is given as “no inhibition”. In the case of COc1ccc(C2CNC(=O)C2)cc1OC1CCCC1 (stereo not shown) [rolipram], the “inhibition on the isolated enzyme” value is listed as “no inhibition”. In the case of OCCN(CCO)c1nc(N2CCCCC2)c2nc(N(CCO)CCO)nc(N3CCCCC3)c2n1 [dipyridamole], the “inhibition on the isolated enzyme” value is listed as “no inhibition”. In the case of CCOC(=O)C1=C[C@]2(CC)CCCN3CCc4c(n1c1ccccc41)[C@@H]32 [vinpocetine], the “inhibition on the isolated enzyme” value is given as “no inhibition”. In the case of CC(C)Cn1c(=O)n(C)c(=O)c2[nH]cnc21 [IBMX], the “inhibition on the isolated enzyme” value is given as “no inhibition”.

Target: Murine PDE9A (Mus musculus (Mouse), UniProt O70628)
Sequence (O70628 whole entry): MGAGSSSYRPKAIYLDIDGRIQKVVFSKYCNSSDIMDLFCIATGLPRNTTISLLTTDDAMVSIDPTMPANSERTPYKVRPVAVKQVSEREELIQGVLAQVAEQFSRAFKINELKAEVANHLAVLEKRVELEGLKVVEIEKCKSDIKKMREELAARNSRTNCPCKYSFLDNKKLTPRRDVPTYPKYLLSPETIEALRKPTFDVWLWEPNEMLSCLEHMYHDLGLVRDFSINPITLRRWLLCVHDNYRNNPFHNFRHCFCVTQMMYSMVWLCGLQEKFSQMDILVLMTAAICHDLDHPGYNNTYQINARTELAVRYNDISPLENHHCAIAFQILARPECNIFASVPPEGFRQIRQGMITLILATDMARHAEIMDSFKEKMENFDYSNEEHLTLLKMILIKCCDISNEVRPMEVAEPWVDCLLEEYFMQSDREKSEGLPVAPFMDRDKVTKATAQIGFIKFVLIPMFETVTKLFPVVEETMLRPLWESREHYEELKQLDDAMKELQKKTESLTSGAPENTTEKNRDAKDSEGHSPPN
Details: concentrations below 200 μM; cited from earlier work
In the case of CC(C)Cn1c(=O)n(C)c(=O)c2[nH]cnc21 [IBMX], the “inhibition of murine PDE9A” value is given as “not inhibited”.
